# Measured values reported in patent US7157083B2, “Compositions and methods for treating retroviral infections” (priority 1998, dated 2007).
# Like-named read-outs stand apart in the source and are kept apart here.
# What was measured:
# ROJO (low passage HIV-1) = assay: Study 2 hyaluronidase chronic overlay testing: RT activity after secondary ROJO infection; type: cell-based
# Text: Percent virus control (% VC) in the following tables is the mean RT activity (cpm) as a percentage of a virus control. Percent cell control (% CC) is the mean XTT absorbance as a percentage of a cell control.
# Method A. Peripheral blood monocytes were isolated from normal HIV-1 negative donors by plastic adherence following ficall hypaque purification of the buffy coat PBMCs. For isolation of adherent cells, 3×10^6/ml non-PHA stimulated peripheral blood cells were resuspended in Hanks buffered saline (with calcium and magnesium) supplemented with 10% human AB serum, and 200 μl per well placed in a 96 well lat bottomed microtiter plate. The cells were incubated overnight at 37° C., 5% CO2. Non-adherent cells were removed by washing six time with a Ca^++, Mg^++ containing medium. The adherent cells after the final wash were supplemented with RPMI 1640 supplemented with 15% fetal bovine serum (heat inactivated), 2 mM L-glutamine, 100 U/mL penicillin, 100 μg/mL streptomycin and 10 μg/mL gentamycin, and cultured for 7 days. The cultures were washed one final time before addition of compounds to remove any non-adherent cells. The cultures are carefully monitored for confluency prior to assay.
# Reverse transcriptase (RT) activity was measured in cell-free supernatants. Tritiated thymidine triphosphate (NEN) (TTP) was resuspended in distilled H2O at […]. Poly rA and oligo dT were prepared as a stock solution which was kept at −20° C. The RT reaction buffer was prepared fresh on a daily basis and consists of 125 μL 1.0 M EGTA, 125 μL d H2O, 110 μL 10% SDS, 50 μL 1.0 M Tris (pH 7.4), 50 μL 1.0 M DTT, and 40μ1.0 M MgCl2. These three solutions were mixed together in a ratio of 2 parts TTP, 1 part poly rA:oligo dT, and 1 part reaction buffer. Ten microliters of this reaction mixture was placed in a round bottom microtiter plate and 15 μL of virus containing supernatant was added and mixed. The plate was incubated at 37° C. in a water bath with a solid support to prevent submersion of the plate and incubated for 60 minutes. Following reaction, the reaction volume was spotted onto pieces of DE81 paper, washed 5 times for 5 minutes each in a 5% sodium phosphate buffer, 2 times for 1 minute each in distilled water, 2 times for 1 minute each in 70% ethanol, and then dried. Opti-Fluor O was added to each sample and incorporated radioactivity was quantitated utilizing a Wallace 1450 Microbetaplus liquid scintillation counter.
# Assay method. Seven day old Rojo chronically infected (and uninfected control) PBMCs are pre-treated with two fold dilutions of HLDA-1 for 48 hours. Treated cells are 2× washed with PBS and overlayed onto seven day old macrophages for 72 hours at which time the PBMCs were washed off and replaced with fresh uninfected pha blast PBMCs in the presence of IL-1 (5.0 ng/mL) and IL-2 (20U/mL). Overlayed cells are incubated for 48 hours 50% of cells transferred to a fresh 96 well plate, and then both the original and transfer plate infected with ROJO at a standard MOI. Samples for reverse transcriptase and toxicity testing were processed on day 7 post secondary infection.
# HIV-1 = conditions: Assay #6
# Protocol: Reverse transcriptase (RT) activity was measured in cell-free supernatants. Tritiated thymidine triphosphate (NEN) (TTP) was resuspended in distilled H2O at 5 Cl/mL. Poly rA and oligo dT were prepared as a stock solution which was kept at −20° C. The RT reaction buffer was prepared fresh on a daily basis and consists of 125 μL 1.0 M EGTA, 125 μL d H2O, 110 μL 10% SDS, 50 μL 1.0 M Tris (pH 7.4), 50 μL 1.0 M DTT, and 40μ1.0 M MgCl2. These three solutions were mixed together in a ratio of 2 parts TTP, 1 part poly rA:oligo dT, and 1 part reaction buffer. Ten microliters of this reaction mixture was placed in a round bottom microtiter plate and 15 μL of virus containing supernatant was added and mixed. The plate was incubated at 37° C. in a water bath with a solid support to prevent submersion of the plate and incubated for 60 minutes. Following reaction, the reaction volume was spotted onto pieces of DE81 paper, washed 5 times for 5 minutes each in a 5% sodium phosphate buffer, 2 times for 1 minute each in distilled water, 2 times for 1 minute each in 70% ethanol, and then dried. Opti-Fluor O was added to each sample and incorporated radioactivity was quantitated utilizing a Wallace 1450 Microbetaplus liquid scintillation counter.
# Control groups were not treated with the enzyme.
substance,measurement,setting,value
Hyaluronidase,RT activity % VC,"ROJO (low passage HIV-1); Table 4, 2.5 units/mL, Rojo chronic PBMCs, Macrophage + PBMCs",207.4%
same,RT activity % VC,"ROJO (low passage HIV-1); Table 4, 2.5 units/mL, Rojo chronic PBMCs, Transfer PBMCs",183.0%
same,RT activity % VC,"ROJO (low passage HIV-1); Table 4, 2.5 units/mL, control uninfected PBMCs, Macrophage + PBMCs",102.3%
same,RT activity % VC,"ROJO (low passage HIV-1); Table 4, 2.5 units/mL, control uninfected PBMCs, Transfer PBMCs",47.3%
same,RT activity % VC,"ROJO (low passage HIV-1); Table 4, 3.75 units/mL, Rojo chronic PBMCs, Macrophage + PBMCs",124.1%
same,RT activity % VC,"ROJO (low passage HIV-1); Table 4, 3.75 units/mL, Rojo chronic PBMCs, Transfer PBMCs",126.5%
same,RT activity % VC,"ROJO (low passage HIV-1); Table 4, 3.75 units/mL, control uninfected PBMCs, Macrophage + PBMCs",111.5%
same,RT activity % VC,"ROJO (low passage HIV-1); Table 4, 3.75 units/mL, control uninfected PBMCs, Transfer PBMCs",34.4%
same,RT activity % VC,"ROJO (low passage HIV-1); Table 4, 5 units/mL, Rojo chronic PBMCs, Macrophage + PBMCs",22.2%
same,RT activity % VC,"ROJO (low passage HIV-1); Table 4, 5 units/mL, Rojo chronic PBMCs, Transfer PBMCs",24.2%
same,RT activity % VC,"ROJO (low passage HIV-1); Table 4, 5 units/mL, control uninfected PBMCs, Macrophage + PBMCs",71.1%
same,RT activity % VC,"ROJO (low passage HIV-1); Table 4, 5 units/mL, control uninfected PBMCs, Transfer PBMCs",18.0%
same,RT activity % VC,"ROJO (low passage HIV-1); Table 4, 7.5 units/mL, Rojo chronic PBMCs, Macrophage + PBMCs",12.7%
same,RT activity % VC,"ROJO (low passage HIV-1); Table 4, 7.5 units/mL, Rojo chronic PBMCs, Transfer PBMCs",21.9%
same,RT activity % VC,"ROJO (low passage HIV-1); Table 4, 7.5 units/mL, control uninfected PBMCs, Macrophage + PBMCs",56.4%
same,RT activity % VC,"ROJO (low passage HIV-1); Table 4, 7.5 units/mL, control uninfected PBMCs, Transfer PBMCs",26.8%
same,RT activity % VC,"ROJO (low passage HIV-1); Table 4, 10 units/mL, Rojo chronic PBMCs, Macrophage + PBMCs",14.8%
same,RT activity % VC,"ROJO (low passage HIV-1); Table 4, 10 units/mL, Rojo chronic PBMCs, Transfer PBMCs",21.5%
same,RT activity % VC,"ROJO (low passage HIV-1); Table 4, 10 units/mL, control uninfected PBMCs, Macrophage + PBMCs",56.2%
same,RT activity % VC,"ROJO (low passage HIV-1); Table 4, 10 units/mL, control uninfected PBMCs, Transfer PBMCs",21.2%
same,RT activity % VC,"ROJO (low passage HIV-1); Table 4, 15 units/mL, Rojo chronic PBMCs, Macrophage + PBMCs",13.3%
same,RT activity % VC,"ROJO (low passage HIV-1); Table 4, 15 units/mL, Rojo chronic PBMCs, Transfer PBMCs",21.9%
same,RT activity % VC,"ROJO (low passage HIV-1); Table 4, 15 units/mL, control uninfected PBMCs, Macrophage + PBMCs",40.2%
same,RT activity % VC,"ROJO (low passage HIV-1); Table 4, 15 units/mL, control uninfected PBMCs, Transfer PBMCs",20.6%
same,RT activity % VC,"ROJO (low passage HIV-1); Table 4, 20 units/mL, Rojo chronic PBMCs, Macrophage + PBMCs",14.2%
same,RT activity % VC,"ROJO (low passage HIV-1); Table 4, 20 units/mL, Rojo chronic PBMCs, Transfer PBMCs",13.6%
same,RT activity % VC,"ROJO (low passage HIV-1); Table 4, 20 units/mL, control uninfected PBMCs, Macrophage + PBMCs",41.9%
same,RT activity % VC,"ROJO (low passage HIV-1); Table 4, 20 units/mL, control uninfected PBMCs, Transfer PBMCs",33.0%
same,RT activity % VC,"ROJO (low passage HIV-1); Table 4, 30 units/mL, Rojo chronic PBMCs, Macrophage + PBMCs",19.9%
same,RT activity % VC,"ROJO (low passage HIV-1); Table 4, 30 units/mL, Rojo chronic PBMCs, Transfer PBMCs",18.0%
same,RT activity % VC,"ROJO (low passage HIV-1); Table 4, 30 units/mL, control uninfected PBMCs, Macrophage + PBMCs",43.8%
same,RT activity % VC,"ROJO (low passage HIV-1); Table 4, 30 units/mL, control uninfected PBMCs, Transfer PBMCs",24.0%
same,RT activity % VC,"ROJO (low passage HIV-1); Table 5, 2.5 units/mL, Rojo chronic PBMCs, Macrophage + PBMCs",164.0%
same,RT activity % VC,"ROJO (low passage HIV-1); Table 5, 2.5 units/mL, Rojo chronic PBMCs, Transfer PBMCs",106.0%
same,RT activity % VC,"ROJO (low passage HIV-1); Table 5, 2.5 units/mL, control uninfected PBMCs, Transfer PBMCs",136.0%
same,RT activity % VC,"ROJO (low passage HIV-1); Table 5, 3.75 units/mL, Rojo chronic PBMCs, Macrophage + PBMCs",191.7%
same,RT activity % VC,"ROJO (low passage HIV-1); Table 5, 3.75 units/mL, Rojo chronic PBMCs, Transfer PBMCs",152.4%
same,RT activity % VC,"ROJO (low passage HIV-1); Table 5, 3.75 units/mL, control uninfected PBMCs, Macrophage + PBMCs",108.5%
same,RT activity % VC,"ROJO (low passage HIV-1); Table 5, 3.75 units/mL, control uninfected PBMCs, Transfer PBMCs",195.0%
same,RT activity % VC,"ROJO (low passage HIV-1); Table 5, 5 units/mL, Rojo chronic PBMCs, Macrophage + PBMCs",253.5%
same,RT activity % VC,"ROJO (low passage HIV-1); Table 5, 5 units/mL, control uninfected PBMCs, Macrophage + PBMCs",184.7%
same,RT activity % VC,"ROJO (low passage HIV-1); Table 5, 5 units/mL, control uninfected PBMCs, Transfer PBMCs",380.0%
same,RT activity % VC,"ROJO (low passage HIV-1); Table 5, 7.5 units/mL, Rojo chronic PBMCs, Macrophage + PBMCs",476.0%
same,RT activity % VC,"ROJO (low passage HIV-1); Table 5, 7.5 units/mL, Rojo chronic PBMCs, Transfer PBMCs",792.6%
same,RT activity % VC,"ROJO (low passage HIV-1); Table 5, 10 units/mL, Rojo chronic PBMCs, Transfer PBMCs",730.4%
same,RT activity % VC,"ROJO (low passage HIV-1); Table 5, 10 units/mL, control uninfected PBMCs, Macrophage + PBMCs",965.0%
same,RT activity % VC,"ROJO (low passage HIV-1); Table 5, 20 units/mL, Rojo chronic PBMCs, Macrophage + PBMCs",375.9%
same,RT activity % VC,"ROJO (low passage HIV-1); Table 5, 20 units/mL, Rojo chronic PBMCs, Transfer PBMCs",284.2%
same,RT activity % VC,"ROJO (low passage HIV-1); Table 5, 20 units/mL, control uninfected PBMCs, Macrophage + PBMCs",196.8%
same,RT activity % VC,"ROJO (low passage HIV-1); Table 5, 20 units/mL, control uninfected PBMCs, Transfer PBMCs",383.0%
same,RT activity % VC,"ROJO (low passage HIV-1); Table 5, 30 units/mL, Rojo chronic PBMCs, Macrophage + PBMCs",291.8%
same,RT activity % VC,"ROJO (low passage HIV-1); Table 5, 30 units/mL, Rojo chronic PBMCs, Transfer PBMCs",222.3%
same,RT activity % VC,"ROJO (low passage HIV-1); Table 5, 30 units/mL, control uninfected PBMCs, Macrophage + PBMCs",163.1%
same,RT activity % VC,"ROJO (low passage HIV-1); Table 5, 30 units/mL, control uninfected PBMCs, Transfer PBMCs",142.7%
same,% Control,HIV-1; 5 mg/mL,54.1%
same,Mean RT,HIV-1; 5 mg/mL,12279.7 cpm
same,% Control,HIV-1; 10 mg/mL,49.6%
same,Mean RT,HIV-1; 10 mg/mL,11244.7 cpm
same,% Control,HIV-1; 20 mg/mL,19.5%
same,Mean RT,HIV-1; 20 mg/mL,4430.7 cpm
same,"% Control, Sum","HIV-1; Sum over 20, 10, 5 mg/mL",123.2%
same,"Mean RT, Sum","HIV-1; Sum over 20, 10, 5 mg/mL",27955.1 cpm
